Data from patent publication US20250340569A1, “INHIBITORS OF KIF18A AND USES THEREOF” (Insilico Medicine IP Limited, priority 2023, published 2025).

Test system: OVCAR-3
Assay: OVCAR3 CTG assay
Assay type: cell-based
Conditions: CellTiter-Glo, 6 days incubation
Source text: Example B2: OVCAR3 CTG Assay
• a) Preparation of complete medium: Added FBS and appropriate additives according to the information sheet provided by the vendor. Mix gently. • b) Checked the cell name and complete medium and passage number marked on the flask. For adherent cell lines, refer to c to k. For suspension cell lines, refer to g to k. • c) Removed and discarded culture medium using a vacuum pump. • d) Briefly rinsed the cell layer with 0.25% (w/v) Trypsin-0.038% (w/v) EDTA solution to remove all traces of serum that contains trypsin inhibitor. • e) Added 3.0 ml of Trypsin-EDTA solution to flask and observed cells under an inverted microscope until cell layer is dispersed. • f) Added 9.0 ml of complete growth medium and aspirated cells by gently pipetting. • g) Transfered the cell suspension to a centrifuge tube and centrifuged at 1000 rpm for 4 minutes. • h) Discarded the supernatant using a vacuum pump. • i) Added appropriate volume of complete medium. Suspended the cell pellet by gently pipetting. • j) Counted the cell numbers with Vi-cell XR and adjusted cells to appropriate density. • k) Added 190 μL of cell suspension to 96-well opaque-walled clear bottom plates according to the planned plate layout and placed the plates in the CO2 incubator overnight.
2) Compound Stock Preparation:
• a) Plate preparation of testing articles:
The compounds were dissolved in DMSO to prepare 10 mM stock solution. The start working concentration (2 mM) was prepared with DMSO.
b) Staurosporine Plate Preparation:
0.4 mM Staurosporine was prepared in DMSO at working concentration.
The 20× compound containing medium was prepared according to the plate map. 10 μL of 20× compound containing medium was added into each well of the assay plates. Centrifuged at 1000 rpm for 1 minute. The total dilution was 200-fold.
3) Cells were Incubated with the Compounds for 6 Days at 5% CO2, 37° C.
Assay Measurement for CTG Assay
1) Preparation of Reagents
• a) Thawed the CellTiter-Glo buffer and equilibrated to room temperature prior to use. • b) Equilibrated the lyophilized CellTiter-Glo substrate to room temperature prior to use. • c) Transfered the appropriate volume of CellTiter-Glo buffer into the amber bottle containing CellTiter-Glo substrate to reconstitute the lyophilized enzyme/substrate mixture. This formed the CellTiter-Glo reagent. • d) Mixed by gently vortexing, swirling or by inverting the contents to obtain a homogeneous solution. The CellTiter-Glo substrate went into solution easily in less than one minute.
• a) Observed the cell morphology under an inverted microscope after corresponding treatment. • b) Equilibrated the plate and its contents to room temperature for approximately 30 minutes. • c) Added 100 μL of CellTiter-Glo reagent to the assay plate by Multidrop Combi instrument. • d) Mixed contents for 10 minutes on an orbital shaker to induce cell lysis. • e) Allowed the plate to incubate at room temperature for 10 minutes to stabilize luminescent signal. • f) Pasted the clear bottom with white back seal and record luminescence with Envision. The settings should be: Luminescence, measurement time 0.1 s.

IC50 (Homo sapiens, OVCAR-3, 144 h) | IC50 | SMILES
100 to 1000 nM | – | O=C1Nc2ccc(=O)n(n2)CCCCCC2(C(F)(F)F)CCN(CC2)c2cc(NS(=O)(=O)CCO)ccc21 [EX65]
10 to 100 nM | – | CN1CCCCCC2(C(F)(F)F)CCN(CC2)c2cc(NS(=O)(=O)CCO)ccc2C(=O)Nc2ccnc1n2 [EX90]
10 to 100 nM | – | CCS(=O)(=O)Nc1cc2c(cn1)C(=O)Nc1cccc(n1)N(C)CCCOCC1(C(F)(F)F)CCN2CC1 [EX97]
10 to 100 nM | – | Cc1cc2nc(n1)NC/C=C\COCC1(C(F)(F)F)CCN(CC1)c1cc(NS(=O)(=O)CCO)ccc1C(=O)N2 [EX51]
1000 to 10000 nM | – | CN1CCCOCC2(C(F)(F)F)CCN(CC2)c2cc(NS(=O)(=O)CCO)ccc2C(=O)Nc2nccc1n2 [EX87]
100 to 1000 nM | – | CN1CC(F)(F)COCC2(C(F)(F)F)CCN(CC2)c2cc(NS(=O)(=O)CCO)ccc2C(=O)Nc2cccc1n2 [EX108]
10 to 100 nM | – | [2H]C([2H])([2H])N1CCCCCC2(C(F)(F)F)CCN(CC2)c2cc(NS(=O)(=O)CCO)ccc2C(=O)Nc2cccc1n2 [EX60]
100 to 1000 nM | – | C/C1=C/CNc2cccc(n2)NC(=O)c2ccc(NS(=O)(=O)CCO)cc2N2CCC(C(F)(F)F)(CC2)COC1 [EX77]
100 to 1000 nM | – | Cc1cc2nc(n1)NCCCOCC1(C)CCN(CC1)c1nc(NC(C)(C)CO)ccc1C(=O)N2 [EX29]
10 to 100 nM | – | Cc1cc2nc(n1)NCC(F)(F)COCC1(C)CCN(CC1)c1cc(NS(=O)(=O)CCO)ccc1C(=O)N2 [EX28]
100 to 1000 nM | – | [2H]C([2H])([2H])N1CCCCC2(C(F)(F)F)CCN(CC2)c2cc(NS(=O)(=O)CCO)ccc2C(=O)Nc2cccc1n2 [EX63]
10 to 100 nM | – | [2H]C([2H])([2H])N1CCCOCC2(C(F)(F)F)CCN(CC2)c2cc(NS(=O)(=O)CCO)ccc2C(=O)Nc2cc(C)nc1n2 [EX44]
10 to 100 nM | – | Cc1cc2nc(n1)N(C)CCCOCC1(C(F)(F)F)CCN(CC1)c1cc(S(=O)(=O)NC(C)(C)C)ccc1C(=O)N2 [EX30]
10 to 100 nM | – | O=C1Nc2cccc(n2)N(C2CC2)CCCOCC2(C(F)(F)F)CCN(CC2)c2cc(NS(=O)(=O)CCO)ccc21 [EX71]
– | 10 to 100 nM | Cc1cc2nc(n1)NC1CC(C1)OCC1(C(F)(F)F)CCN(CC1)c1cc(NS(=O)(=O)CCO)ccc1C(=O)N2 [EX54]
10 to 100 nM | – | Cc1cc2nc(n1)NCC(C)COCC1(C#N)CCN(CC1)c1cc(NS(=O)(=O)CCO)ccc1C(=O)N2 (stereo not shown) [EX42]
100 to 1000 nM | – | CN1CCCOCC2(C(F)(F)F)CCN(CC2)c2cc(NS(=O)(=O)CCO)ccc2C(=O)Nc2cc(Cl)nc1n2 [EX94]

The remaining lines, values behind:

SMILES | IC50 (Homo sapiens, OVCAR-3, 144 h) | IC50
CO[C@@H]1CNc2cccc(n2)NC(=O)c2ccc(NS(=O)(=O)CCO)cc2N2CCC(C(F)(F)F)(CC2)COC1 [EX78-A] | 10 to 100 nM | –
C[C@@H]1CCOCC2(C(F)(F)F)CCN(CC2)c2cc(NS(=O)(=O)CCO)ccc2C(=O)Nc2cccc(n2)N1 [EX107-A] | 100 to 1000 nM | –
C[C@@H]1CNc2nc(ccc2F)NC(=O)c2ccc(NS(=O)(=O)CCO)cc2N2CCC(C(F)(F)F)(CC2)COC1 [EX76-B] | 10 to 100 nM | –
C[C@@H]1COCC2(C(F)(F)F)CCN(CC2)c2cc(NS(=O)(=O)CCO)ccc2C(=O)Nc2cccc(n2)CO1 [EX84-B] | 10 to 100 nM | –
Cc1cc2nc(n1)N1CCO[C@@H](COCC3(C(F)F)CCN(CC3)c3cc(NS(=O)(=O)CCO)ccc3C(=O)N2)C1 [EX113-B] | 10 to 100 nM | –
Cc1cc2nc(n1)N1CCO[C@@H](COCC3(C(F)(F)F)CCN(CC3)c3cc(NS(=O)(=O)CCO)ccc3C(=O)N2)C1 (stereo in doubt) [EX96-B] | 10 to 100 nM | –
CCS(=O)(=O)Nc1cc2c(cn1)C(=O)Nc1cccc(n1)NC[C@@H](C)CCCC1(C(F)(F)F)CCN2CC1 [EX101-B] | < 10 nM | –
O=C1Nc2ccnc(n2)N2CCO[C@H](COCC3(C(F)(F)F)CCN(CC3)c3cc(NS(=O)(=O)CCO)ccc31)C2 [EX93-A] | < 10 nM | –
